From paper PMC6001580, “Synthesis and molecular modelling studies of pyrimidinones and pyrrolo[3,4-d]-pyrimidinodiones as new antiplasmodial compounds” (Memórias do Instituto Oswaldo Cruz, 2018)
Values joined by “and” are separate entries in the source; they are usually repeats but may differ in a detail not shown here. Equal entries are not always repeated. Where two headings read alike, the source gives them in different places.

Columns and labels:
BGM cells = test: Cytotoxicity evaluation on mammalian cells (MTT); type: cell-based; conditions: 24 h, mean of three experiments
Method: Cytotoxicity evaluation on mammalian cells - BGM cells (originally acquired from ATCC (American Type Culture Collection), Manassas, VA, USA by the Federal University of Minas Gerais, Brazil, and donated by Dr Antoniana Krettli - Federal University of Minas Gerais) were cultured in 75 cm^2 sterile ﬂasks containing RPMI 1640 medium supplemented with 10% foetal bovine serum (FBS) at a concentration of 5 x 10^3 cells per millilitre in a 5% CO2 atmosphere at 37 °C. Cells were added with the test compounds in serial dilution. When the cell monolayer was confluent, it was trypsinised, washed with a culture medium distributed in a flat-bottomed 96-well plate (1 × 10^5 cells/mL) and incubated for 24 h at 37 °C to ensure cell adherence. Then, the drugs were added in serial dilution (1000-15 µM) and incubated for 24 h at 37 °C. Subsequently, the MTT salt, in a concentration of 3 mg/mL, was added after 3 h; then, the supernatant was removed, and the dye present on the bottom of the plate wells was dissolved in DMSO in a volume of 100 µL/well DMSO. The microplates were then read in an Espectramax 190 (Molecular Devices, USA) spectrophotometer, using the 570 nm filter. The determination of MDL50 was performed using a dose response curves nonlinear regression function ([Denizot and Lang 1986]).

[1] = test system: chloroquine-resistant Plasmodium falciparum W2 strain; test: Antiplasmodial in vitro assay (HRPII sandwich ELISA, 72 h); type: cell-based; conditions: for IC50: Plasmodium falciparum, W2, 72 h; for SI (selectivity index): SI = MDL50 / IC50 (BGM cells vs P. falciparum W2)
Excerpt: Antiplasmodial in vitro assay - The cultivation of P. falciparum W2 strain (originating from Indochina and cultivated in the Malaria Research Laboratory, Oswaldo Cruz Foundation-Fiocruz), which is chloroquine-resistant, was made according to the protocol of [Trager and Jensen (1976)], using human erythrocytes (A^+) in an RPMI 1640 medium supplemented with human serum. Parasites were synchronised to obtain the young (ring) parasite forms ([Lambros and Vanderberg 1979]). Parasitaemia was adjusted to 0.05% and haematocrit to 1.5%. Subsequently, the cultures were placed in microplates with the drugs, previously diluted in dimethyl sulphoxide and medium (DMSO 0.02% v/v), to be tested in serial dilutions (50 - 0.78 µM), as well as positive controls (chloroquine in serial dilutions; 10 - 0.07 µM) and negative (no drug) controls. All the microplates were incubated for 72 h. The microplates were then subjected to three cycles of freezing and thawing; the parasite growth was measured through the quantification of histidine-rich protein II (HRPII) using specific monoclonal antibodies (MPFM ICLLAB-55A®, USA and MPFG55P ICLLAB®, USA) in sandwich ELISA ([Noedl et al. 2002]). Absorbance was read at 450 nm in an Espectramax 190 spectrophotometer (Molecular Devices, USA), and the determination of the IC50 was made using dose-response curves.

[2] = test system: P. berghei ANKA expressing green fluorescent protein (PbA-GFP); test: In vivo activity evaluation against P. berghei (four-day test in mice); parameters: species or system Plasmodium berghei; conditions: Swiss mice, 30 mg/Kg orally for four consecutive days, vs untreated controls; for Reduction (%) of parasitaemia, Day eight: day eight after infection; for Reduction (%) of parasitaemia, Day five: day five after infection
Excerpt: In vivo activity evaluation against P. berghei - Swiss mice (Institute of Science and Technology in Biomodels - Fiocruz) were inoculated with 10^5 erythrocytes infected with P. berghei ANKA expressing green fluorescent protein (PbA-GFP, a donation from the malaria research and reference reagent resource centre -MR4, Manassas, VA; deposited by CJ Janse and AP Waters; MR4 number: MRA-865) intraperitoneally (day 1 of the experiment). Three hours after inoculation, the animals were randomly divided into five groups of mice. […] All of the test compounds and chloroquine were administered at a dose of 30 mg/kg, orally by gavage for four consecutive days. On days 5 and 8 after infection, flow cytometry was used to detect and count the number of parasitised red blood cells (RBC) that expressed GFP in relation to 10,000 RBCs, thus assessing the evolution of parasitaemia. […] The antimalarial activity was determined by the percentage reduction in parasitaemia of treated animals compared to untreated controls ([Peters et al. 1975]).

Hemolysis assay = type: cell-based; conditions: erythrocyte suspension (1% haematocrit), at 1000 μM, 37 °C, read-out: haemolysis
Method: Hemolysis assay - The haemolysis assay was performed according to the protocol described by [Wang et al. (2010)]. The compounds were dissolved in DMSO (0.5% v/v). Suspensions of erythrocytes (1% haematocrit) were incubated with the compounds at serial dilutions ranging from 15 to 1000 µM, at 37 °C for 30 min with a constant stirring. A 0.05% solution of saponin (Sigma-Aldrich) was used as a positive control of the test as it generated 100% haemolysis, and the suspension of erythrocytes in the medium was used as a negative control (blank). Following incubation, suspensions were centrifuged at 1000 g for 10 min, and the absorbance of the supernatants was measured at 540 nm using an Espectramax 190 spectrophotometer. The haemolysis rate of the samples was calculated as follows: % haemolysis = (sample absorbance - blank absorbance) x 100 / absorbance of the control with saponin.

[3] = P. falciparum W2 strain, 72 h, HRPII ELISA, mean of three experiments, read-out: IC50

Row | SMILES | IC50 [1, 3] | MDL50 (BGM cells) | SI (selectivity index) [1] | Reduction (%) of parasitaemia, Day eight [2] | Reduction (%) of parasitaemia, Day five [2] | hemolysis at 30 min, 1000 µM (Hemolysis assay) | IC50 [1]
1 | CCOC(=O)C1=C(CCl)NC(=O)NC1c1ccc(OC)cc1 (centres unmarked) [1b] |  | 57 µM and 57 ± 0.65 µM | 19 | 33.8% | 0% |  | 
2 | CCOC(=O)C1=C(CCl)NC(=O)NC1c1ccc(Br)cc1 (centres unmarked) [1f] | 1.76 ± 0.27 µM | 22 µM and 22 ± 0.56 µM | 12.5 | 60.9% | 9.1% | 0.95% | 
3 | COc1ccc(C2NC(=O)NC3=C2C(=O)N(Cc2ccccc2)C3)c(OC)c1 (centres unmarked) [3i] | > 50 µM | > 100 µM |  |  |  |  | 
4 | COc1ccc(C2NC(=O)NC3=C2C(=O)N(Cc2ccccc2)C3)cc1 (centres unmarked) [3b] | > 50 µM | > 100 µM |  |  |  |  | 
5 | CCOC(=O)C1=C(CCl)NC(=O)NC1c1ccccc1OC (centres unmarked) [1e] |  | 23.8 ± 0.6 µM | 1.95 |  |  |  | 
6 | COc1cc(C2NC(=O)NC3=C2C(=O)N(Cc2ccccc2)C3)cc(OC)c1OC (centres unmarked) [3g] | > 50 µM | > 100 µM |  |  |  |  | 
7 | O=C1NC2=C(C(=O)N(CCc3ccccc3)C2)C(c2cccc(Br)c2)N1 (centres unmarked) [2c] | > 50 µM | 6.9 ± 0.97 µM |  |  |  | 12.3% | 
8 | COc1ccc(C2NC(=O)NC3=C2C(=O)N(Cc2ccccc2)C3)cc1OC (centres unmarked) [3k] | > 50 µM | > 100 µM |  |  |  |  | 
9 | O=C1NC2=C(C(=O)N(CCc3ccccc3)C2)C(c2ccccc2Cl)N1 (centres unmarked) [2h] | > 50 µM | > 100 µM |  |  |  |  | 
10 | O=C1NC2=C(C(=O)N(CCc3ccccc3)C2)C(c2ccccc2)N1 (centres unmarked) [2a] | > 50 µM | > 100 µM |  |  |  |  | 
11 | CCN(CC)CCCC(C)Nc1ccnc2cc(Cl)ccc12 (centres unmarked) [Chloroquine, reference compound] |  |  |  | 100% | 97.2% |  | 0.55 ± 0.09 µM
12 | O=C1NC2=C(C(=O)N(Cc3ccccc3)C2)C(c2ccc([N+](=O)[O-])cc2)N1 (centres unmarked) [3j] | > 50 µM | > 100 µM |  |  |  |  | 
13 | O=C1NC2=C(C(=O)N(CCc3ccccc3)C2)C(c2ccc(Br)cc2)N1 (centres unmarked) [2f] | > 50 µM | 18.6 ± 1.21 µM |  |  |  | 22.6% | 
14 | CCOC(=O)C1=C(CCl)NC(=O)NC1c1ccccc1Cl (centres unmarked) [1h] | 3.12 ± 0.06 µM | 77 µM and 77 ± 0.87 µM | 24.6 | 55.2% | 0% |  | 

Second part, led by results:

Row | IC50 [1, 3] | SMILES | MDL50 (BGM cells) | SI (selectivity index) [1] | Reduction (%) of parasitaemia, Day eight [2] | Reduction (%) of parasitaemia, Day five [2] | hemolysis at 30 min, 1000 µM (Hemolysis assay) | IC50 [1]
15 | 25.6 ± 0.09 µM | O=C1NC2=C(C(=O)N(CCc3ccccc3)C2)C(c2ccc([N+](=O)[O-])cc2)N1 (centres unmarked) [2j] | 8.9 ± 0.9 µM | 0.4 |  |  |  | 
16 | 6.38 ± 0.8 µM | CCOC(=O)C1=C(CCl)NC(=O)NC1c1ccccc1 (centres unmarked) [1a] | 24.6 ± 0.03 µM | 3.9 |  |  |  | 
17 | 22 ± 0.08 µM | COc1ccccc1C1NC(=O)NC2=C1C(=O)N(CCc1ccccc1)C2 (centres unmarked) [2e] | 56 ± 1.83 µM | 2.5 |  |  |  | 
18 | 6 ± 0.8 µM | CCOC(=O)C1=C(CCl)NC(=O)NC1c1ccc([N+](=O)[O-])cc1 (centres unmarked) [1j] | 26.2 ± 1.1 µM | 4.4 |  |  |  | 
19 | > 50 µM | COc1cc(C2NC(=O)NC3=C2C(=O)N(CCc2ccccc2)C3)cc(OC)c1OC (centres unmarked) [2g] | 6.2 ± 0.73 µM | < 0.1 |  |  |  | 
20 | > 50 µM | COc1ccccc1C1NC(=O)NC2=C1C(=O)N(Cc1ccccc1)C2 (centres unmarked) [3e] | > 100 µM |  |  |  |  | 
21 | 1.96 ± 0.21 µM | CCOC(=O)C1=C(CCl)NC(=O)NC1c1ccc(Cl)cc1 (centres unmarked) [1d] | 2.5 ± 0.93 µM | 1.3 |  |  | 3.6% | 
22 | > 50 µM | O=C1NC2=C(C(=O)N(Cc3ccccc3)C2)C(c2ccccc2)N1 (centres unmarked) [3a] | > 100 µM |  |  |  |  | 
23 | 26.4 ± 0.26 µM | COc1ccc(C2NC(=O)NC3=C2C(=O)N(CCc2ccccc2)C3)cc1 (centres unmarked) [2b] | 24.6 ± 1.23 µM | 0.93 |  |  | 21.7% | 
24 | 26.7 ± 0.56 µM | O=C1NC2=C(C(=O)N(Cc3ccccc3)C2)C(c2ccccc2Cl)N1 (centres unmarked) [3h] | > 100 µM | > 3.8 |  |  |  | 
25 | 45 ± 0.79 µM | O=C1NC2=C(C(=O)N(Cc3ccccc3)C2)C(c2ccc(Cl)cc2)N1 (centres unmarked) [3d] | 86 ± 1.27 µM | 1.9 |  |  |  | 
26 | 3 ± 0.25 µM | CCOC(=O)C1=C(CCl)NC(=O)NC1c1ccc(OC)c(OC)c1 (centres unmarked) [1k] | 24.5 ± 0.09 µM | 8.2 |  |  |  | 
27 | 2.98 ± 0.18 µM | CCOC(=O)C1=C(CCl)NC(=O)NC1c1ccc(OC)cc1OC (centres unmarked) [1i] | 9.7 ± 0.46 µM | 3.3 |  |  |  | 
28 | 24.1 ± 1.2 µM | CCOC(=O)C1=C(CCl)NC(=O)NC1c1cc(OC)c(OC)c(OC)c1 (centres unmarked) [1g] | 21.7 ± 1.15 µM | 0.9 |  |  |  | 
29 | 3 µM | CCOC(=O)C1=C(CCl)NC(=O)NC1c1ccc(O)c(OC)c1 (centres unmarked) [1l] |  |  |  |  |  | 
30 | 26 ± 1.15 µM | O=C1NC2=C(C(=O)N(Cc3ccccc3)C2)C(c2ccc(Br)cc2)N1 (centres unmarked) [3f] | > 100 µM | > 3.8 |  |  |  | 
31 | 6.17 ± 0.02 µM | CCOC(=O)C1=C(CCl)NC(=O)NC1c1cccc(Br)c1 (centres unmarked) [1c] | 21.7 ± 1.24 µM | 3.5 |  |  |  | 
